Columns and labels:
Assay in all cases: area over the GR curve, 72 h; higher = more effect;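 also: Dye Drop or Deep Dye Drop imaging of viable cells in 384-well plates (Hoechst nuclei, LIVE/DEAD dye), nine half-log doses, GR normalized to DMSO controls and time-zero plates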
MDAMB415 = test system: MDAMB415
ZR751 = test system: ZR751
HCC202 = test system: HCC202
UACC893 = test system: UACC893
ZR7530 = test system: ZR7530
MGH312 = test system: MGH312
UACC812 = test system: UACC812
CAL51 = test system: CAL51
MDAMB361 = test system: MDAMB361
MDAMB231 = test system: MDAMB231
CAMA1 = test system: CAMA1
SUM52PE = test system: SUM52PE
MCF12A = test system: MCF12A
HCC1187 = test system: HCC1187
PDX1258 = test system: PDX1258

Compound	area over the GR curve (MDAMB415) [GR]	area over the GR curve (ZR751) [GR]	area over the GR curve (HCC202) [GR]	area over the GR curve (UACC893) [GR]	area over the GR curve (ZR7530) [GR]	area over the GR curve (MGH312) [GR]	area over the GR curve (UACC812) [GR]	area over the GR curve (CAL51) [GR]	area over the GR curve (MDAMB361) [GR]	area over the GR curve (MDAMB231) [GR]	area over the GR curve (CAMA1) [GR]	area over the GR curve (SUM52PE) [GR]	area over the GR curve (MCF12A) [GR]	area over the GR curve (HCC1187) [GR]	area over the GR curve (PDX1258) [GR]
CC(=O)c1c(C)c2cnc(Nc3ccc(N4CCN(CCOCCOCCOCCNC(=O)COc5cccc6c5C(=O)N(C5CCC(=O)NC5=O)C6=O)CC4)cn3)nc2n(C2CCCC2)c1=O (stereo not given) [BSJ-03-123] (max 10 µM)	0.332	0.267	0.221	0.34	0.387	0.129	0.367	0.187	0.439	0.353	0.658	0.219	0.136	-0.0405	0.0283
CC(C)Nc1cc(-c2c[nH]c(C(=O)N[C@H](CO)c3cccc(Cl)c3)c2)c(Cl)cn1 [BVD523] (max 10 µM)	0.121	0.122	0.174	0.267	0.08	-0.0209	0.305	0.0561	0.193	0.232	0.241	0.129	0.111	-0.297	0.149
Nc1cc(C(F)(F)F)c(-c2cc(N3CCOCC3)nc(N3CCOCC3)n2)cn1 [Buparlisib/NVP-BKM120] (max 10 µM)	0.35	0.256	0.371	0.587	0.371	0.506	0.806	0.328	0.611	0.275	0.353	0.338	0.168	0.425	0.245
COc1cc2nccc(Oc3ccc(NC(=O)C4(C(=O)Nc5ccc(F)cc5)CC4)cc3)c2cc1OC [Cabozantinib] (max 10 µM)	-0.0499	-0.0852	-0.0223	-0.159	0.174	-0.0125	-0.092	0.0598	0.0628	0.141	0.0239	0.249	-0.0141	0.39	0.0204
COc1cc2c(Oc3ccc4[nH]c(C)cc4c3F)ncnc2cc1OCCCN1CCCC1 [Cediranib/AZD2171] (max 10 µM)	0.246	0.019	0.0677	0.122	0.0237	-0.0345	0.342	0.171	0.288	0.116	0.109	0.379	-0.0002	0.195	0.0493
Cc1cc(Nc2ncc(Cl)c(Nc3ccccc3S(=O)(=O)C(C)C)n2)c(OC(C)C)cc1C1CCNCC1 [Ceritinib/LDK378] (max 10 µM)	0.085	0.16	0.119	-0.0026	0.0423	0.001	0.085	0.417	0.546	0.344	0.236	0.0274	0.0596	0.168	0.199
Cc1nc(Nc2ncc(C(=O)Nc3c(C)cccc3Cl)s2)cc(N2CCN(CCO)CC2)n1 [Dasatinib] (max 10 µM)	0.272	0.687	0.779	-0.149	0.426	0.908	1.15	0.516	0.351	0.647	0.152	0.451	0.42	0.618	0.714
COc1cccc2c1C(=O)c1c(O)c3c(c(O)c1C2=O)C[C@@](O)(C(=O)CO)C[C@@H]3O[C@H]1C[C@H](N)[C@H](O)[C@H](C)O1 [Doxorubicin] (max 3.162 µM)	0.834	0.497	0.358	0.611	0.552	1.07	1.18	0.795	0.912	0.818	0.843	0.321	0.601	1.08	0.754
CO[C@H]1C[C@@H]2CC[C@@H](C)[C@@](O)(O2)C(=O)C(=O)N2CCCC[C@H]2C(=O)O[C@H]([C@H](C)C[C@@H]2CC[C@@H](OCCO)[C@H](OC)C2)CC(=O)[C@H](C)/C=C(\C)[C@@H](O)[C@@H](OC)C(=O)[C@H](C)C[C@H](C)/C=C/C=C/C=C/1C [Everolimus] (max 10 µM)	0.807	0.669	0.499	0.714	0.598	0.798	0.984	0.432	0.85	0.225	0.767	0.408	0.273	0.287	0.307
CCC(=O)Nc1ccc(C(=O)Nc2ccc(Nc3ncc4c(n3)N(C)c3ccc(C)cc3C(=O)N4C)cc2)cc1 [FMF-03-145-1]	0.845	0.391	0.602	0.869	0.918	1.28	1.04	0.394	0.323	0.947	0.393	0.91	0.345	1.51	1.12
COc1cc(N2CCN(C)CC2)ccc1Nc1ncc2c(n1)N(C)c1ccccc1C(=O)N2CC(F)(F)F [FMF-03-146-1]	0.0297	0.0552	0.0146	-0.0085	0.0601	0.025	0.0144	0.0396	0.126	0.0225	-0.0223	-0.0411	0.0258	-0.332	-0.0674
CN1CC[C@H](c2c(O)cc(O)c3c(=O)cc(-c4ccccc4Cl)oc23)[C@H](O)C1 [Flavopiridol] (max 1 µM)	0.284	0.152	0.273	0.321	0.236	0.452	0.419	0.242	0.397	0.286	0.253	0.215	0.167	0.0933	0.341
CC(C)n1nc(-c2ccc3oc(N)nc3c2)c2c(N)ncnc21 [INK128/MLN0128] (max 3.162 µM)	0.692	0.679	0.581	0.745	0.533	1.22	1.22	0.553	1.1	0.486	0.64	0.572	0.495	0.416	0.449
CC(C)NC[C@@H](C(=O)N1CCN(c2ncnc3c2[C@H](C)C[C@H]3O)CC1)c1ccc(Cl)cc1 [Ipatasertib/GDC0068] (max 10 µM)	0.758	0.0518	0.169	0.529	0.124	0.933	0.173	0.224	0.453	0.0065	0.412	0.0168	0.0679	0.286	0.15
CN(C)C(=O)c1cc2cnc(Nc3ccc(N4CCNCC4)cn3)nc2n1C1CCCC1 [LEE011/Ribociclib] (max 10 µM)	0.613	0.258	0.11	0.53	0.398	-0.0019	0.642	0.299	0.784	0.365	0.651	0.215	0.0926	-0.0536	-0.124
CCNC(=O)c1noc(-c2cc(C(C)C)c(O)cc2O)c1-c1ccc(CN2CCOCC2)cc1 [Luminespib/NVP-AUY922] (max 1 µM)	0.613	0.362	0.431	1.07	0.536	0.962	0.881	0.704	0.978	0.645	0.535	0.6	0.619	0.919	0.608
CCOc1cc2ncc(C#N)c(Nc3ccc(OCc4ccccn4)c(Cl)c3)c2cc1NC(=O)/C=C/CN(C)C [Neratinib/HKI272] (max 3.162 µM)	0.0594	0.0964	0.453	1.17	1.08	0.373	1.03	0.091	0.425	0.105	0.0703	0.0354	0.194	0.181	0.154
O=C(c1cc(Cc2n[nH]c(=O)c3ccccc23)ccc1F)N1CCN(C(=O)C2CC2)CC1 [Olaparib/AZD2281] (max 10 µM)	-0.0472	0.0567	0.127	0.0342	0.0601	0.0149	-0.0835	0.116	0.0967	0.0581	0.0527	-0.0471	0.0468	0.157	0.02
CC(=O)O[C@H]1C(=O)[C@@]2(C)[C@H]([C@H](OC(=O)c3ccccc3)[C@]3(O)C[C@H](OC(=O)[C@H](O)[C@@H](NC(=O)c4ccccc4)c4ccccc4)C(C)=C1C3(C)C)[C@]1(OC(C)=O)CO[C@@H]1C[C@@H]2O [Paclitaxel] (max 1 µM)	0.948	0.511	0.552	0.905	0.868	0.973	1.44	0.669	0.974	0.702	0.953	0.898	0.586	1.34	0.68
CS(=O)(=O)N1CCN(Cc2cc3nc(-c4cccc5[nH]ncc45)nc(N4CCOCC4)c3s2)CC1 [Pictilisib/GDC0941] (max 10 µM)	0.378	0.324	0.431	0.323	0.465	0.771	0.6	0.19	0.716	0.206	0.262	0.364	0.089	0.374	0.23
O=C1NC(=NCc2cccs2)SC1=Cc1ccc2ncccc2c1 [R0-3306] (max 10 µM)	0.0262	0.0473	0.14	0.0158	0.113	0.0994	0.142	0.067	0.0965	0.0059	0.0858	0.0606	0.041	0.017	0.0971
CNCc1ccc(-c2[nH]c3cc(F)cc4c3c2CCNC4=O)cc1 [Rucaparib] (max 10 µM)	0.11	0.0837	0.207	0.164	0.25	0.189	0.0535	0.0888	0.336	0.0793	0.0981	0.0094	0.0783	-0.119	0.204
CC1(N)CCN(c2cnc(-c3cccc(Cl)c3Cl)c(N)n2)CC1 [SHP099] (max 10 µM)	0.0605	0.0364	0.051	-0.0199	-0.0067	-0.0302	0.151	0.03	0.13	-0.0083	0.0525	-0.0423	0.0144	-0.341	-0.0325
CN1CCN(CCOc2cc(OC3CCOCC3)c3c(Nc4c(Cl)ccc5c4OCO5)ncnc3c2)CC1 [Saracatinib/AZD0530] (max 10 µM)	0.208	0.163	0.396	0.11	0.399	0.537	0.875	0.227	0.406	0.269	0.0262	0.0817	0.0317	0.457	0.275
Cc1cc(C(C)Nc2ccccc2)c2nc(N3CCOCC3)cc(=O)n2c1 (stereo not given) [TGX221] (max 10 µM)	0.224	0.354	-0.0253	-0.111	-0.0239	0.472	0.523	-0.0117	-0.0911	0.0141	0.0019	0.0531	-0.0153	0.305	-0.0475
CN(C)C/C=C/C(=O)Nc1ccc(C(=O)Nc2cccc(Nc3ncc(Cl)c(-c4c[nH]c5ccccc45)n3)c2)cc1 [THZ1] (max 1 µM)	0.453	0.162	0.42	0.542	0.561	0.97	0.0711	0.161	0.746	0.356	0.459	0.527	0.256	0.71	0.633
CN(C)C/C=C/C(=O)Nc1ccc(C(=O)N2CCC[C@@H](Nc3ncc(Cl)c(-c4c[nH]c5ccccc45)n3)C2)cc1 [THZ531] (max 1 µM)	0.434	0.124	0.3	0.437	0.472	0.636	0.0619	0.0896	0.682	0.205	0.241	0.222	0.0965	0.129	0.457
